Measurements: the supplement of paper PMC8882468
± gives the standard deviation of the averaged measurements.

Columns and labels:
Test in all cases: CTG-3D luminescence at 96 h relative to day-0 seeding control (ratio to day 0); higher = more growth / less cytotoxicity; PDxO 3D drug screen, 96 h, CTG-3D normalised to day-0 seeding control.
HCI-001 = system: HCI-001 (organoid from a triple-negative breast cancer xenograft)
HCI-002 = system: HCI-002 (organoid from a triple-negative breast cancer xenograft)
HCI-017.E2 = system: HCI-017.E2 (organoid from an ER-positive breast cancer xenograft)
HCI-023 = system: HCI-023 (organoid from a triple-negative breast cancer xenograft)
MDA-MB-231 = system: MDA-MB-231

CCc1c2c(nc3ccc(O)cc13)-c1cc3c(c(=O)n1C2)COC(=O)[C@]3(O)CC [SN-38]
CTG-3D luminescence at 96 h
Details	12.5 pM	0.00025 µM	0.005 µM	0.1 µM	1 µM	10 µM	100 µM	625 fM
HCI-001, days in culture: 240	1.51	0.771	0.767	0.396	0.155	0.0446	0.0627	1.46
HCI-001, days in culture: 260	2.58	1	1.24	0.603	0.195	0.0569	0.027	1.29
HCI-001, days in culture: 269	1.53	1.63	1.32	0.477	0.161	0.0511	0.0406	1.73
HCI-001, days in culture: 327	1.72	1.61	1.83	0.602	0.127	0.0312	0.0351	2.1
HCI-001, days in culture: 346	1.26	1.2	0.977	0.483	0.105	0.0311	0.0287	1.11
HCI-001, days in culture: 364	1.37	0.978	1.19	0.283	0.0835	0.0303	0.0177	1.76
HCI-002, days in culture: 62	3.11	2.44	1.01	0.53	0.117	0.0334	0.0217	3.05
HCI-002, days in culture: 82	3.04	3.05	1.13	0.606	0.265	0.0317	0.0208	3.43
HCI-002, days in culture: 91	3.6	2.86	0.92	0.659	0.289	0.0365	0.0217	3.54
HCI-002, days in culture: 191	2.67	2.76	1.31	0.721	0.356	0.0269	0.0208	2.87
HCI-002, days in culture: 209	2.21	2.28	0.962	0.556	0.155	0.0238	0.0205	2.49
HCI-002, days in culture: 227	5.46	4.33	1.89	1.13	0.464	0.0608	0.038	5.49
HCI-017.E2, days in culture: 85	2.43	2.66	1.7	2.32	1.23	0.584	0.428	2.19
HCI-023, days in culture: 111	1.39	1.19	0.797	0.194	0.0332	0.0191	0.0103	1.53
HCI-023, days in culture: 128	2.09 ± 0.093	1.68 ± 0.05	0.754 ± 0.081	0.391 ± 0.076	0.0587 ± 0.004	0.0307 ± 0.00066	0.0252 ± 0.00077	1.9 ± 0.4

CTG-3D luminescence at 96 h
Details	12.5 pM	0.00025 µM	0.005 µM	0.1 µM	1 µM	10 µM	100 µM	625 fM
HCI-017.E2	1.58 ± 0.35	1.73 ± 0.36	1.5 ± 0.31	1.44 ± 0.029	1.16 ± 0.32	0.47 ± 0.044	0.407 ± 0.099	1.77 ± 0.13
MDA-MB-231	4.45 ± 1.1	4.3 ± 1	3.73 ± 0.95	2.38 ± 0.54	1.55 ± 0.42	0.665 ± 0.23	0.568 ± 0.23	4.4 ± 0.96

CC1(C)CCC(c2ccc(Cl)cc2)=C(CN2CCN(c3ccc(C(=O)NS(=O)(=O)c4ccc(N[C@H](CCN5CCOCC5)CSc5ccccc5)c(S(=O)(=O)C(F)(F)F)c4)cc3)CC2)C1 [navitoclax]
CTG-3D luminescence at 96 h
Details	12.5 pM	0.00025 µM	0.005 µM	0.1 µM	1 µM	10 µM	100 µM	625 fM
HCI-001, days in culture: 240	1.51	1.07	0.955	1.53	1.1	0.369	0.0412	1.73
HCI-001, days in culture: 260	2.66	1.09	1.83	1.92	1.58	0.642	0.0822	1.64
HCI-001, days in culture: 269	1.8	1.73	1.37	1.38	0.942	0.889	0.124	1.67
HCI-001, days in culture: 327	2.11	1.59	2.17	1.48	0.963	0.0556	-0.168	2.04
HCI-001, days in culture: 346	1.64	1.22	1.38	1.24	1.3	0.577	0.00509	1.3
HCI-001, days in culture: 364	1.67	1.16	1.61	1.17	1.17	0.802	0.00601	1.63
HCI-002, days in culture: 62	3.12	2.9	3.78	2.92	2.42	1.07	0.00133	3.47
HCI-002, days in culture: 82	3.88	4.28	2.86	2.91	2.86	1.36	0.00885	3.44
HCI-002, days in culture: 91	3.48	2.91	2.21	2.3	1.97	1.73	0.00844	3.14
HCI-002, days in culture: 191	3.36	3.04	3.27	3.13	2.63	1.29	-0.105	3.4
HCI-002, days in culture: 209	2.83	3.07	2.6	2.13	1.85	1.18	-0.00717	2.97
HCI-002, days in culture: 227	5.11	5.2	4.65	4.75	3.73	3.27	0.0214	5.74
HCI-017.E2, days in culture: 85	2.05	1.26	2.18	1.93	1.57	1.98	0.14	1.51
HCI-023, days in culture: 111	1.82	1.42	1.19	1.26	0.739	0.432	0.0151	1.83
HCI-023, days in culture: 128	1.58 ± 0.11	1.8 ± 0.42	1.53 ± 0.12	1.82 ± 0.083	1.1 ± 0.26	0.995 ± 0.043	0.00828 ± 0.0036	1.58 ± 0.21

CTG-3D luminescence at 96 h
Details	12.5 pM	0.00025 µM	0.005 µM	0.1 µM	1 µM	10 µM	100 µM	625 fM
HCI-017.E2	1.6 ± 0.18	2 ± 0.041	1.8 ± 0.34	1.81 ± 0.098	1.78 ± 0.1	1.7 ± 0.076	0.043 ± 0.019	1.812 ± 0.011
MDA-MB-231	4.52 ± 1.3	4.44 ± 1.4	4.56 ± 1.4	4.28 ± 1.3	3.8 ± 1	1.42 ± 0.98	0.000199 ± 0.013	4.6 ± 1.3
